The text below walks through data of US20230173090A1, “COMPOSITIONS AND METHODS FOR MODULATING DOPAMINE RECEPTOR ACTIVITY” (The Regents of the University of California, priority 2020, published 2023).

One series has as its target T1, D1R (Homo sapiens, UniProt P21728).
T1 construct: expressed in transfected cells; host or cells: HEK293T (A1, A2); HEK293 (A26)
In words: D1R-mediated cAMP accumulation assay (BRET sensor CAMYEL) in HEK293T cells. It counts as cell-based. Conditions: FIGS. 9A-9H. From the text:
FIGS. 9A-9H. Functional properties of untethered P-D1ago. (A) Schematic representation of a D1R-mediated G protein-coupled inwardly rectifying potassium (GIRK) channel assay in HEK293T cells. Agonist-induced receptor activation results in the recruitment of a heterotrimeric G protein containing the chimeric Gα subunit (Gαis) followed by the release of Gβγ, which activates GIRK channels and enhances inward-current. […]. (C) Representative traces of the effect of untethered P-D1ago on D1R in the absence of the membrane-anchor (M) according to the GIRK assay. […] (D) Summary of the functional effect of untethered P-D1ago on D1R in the GIRK assay. n = 4-5 cells per condition. (E) Schematic representation of a highly sensitive D1R-mediated cAMP accumulation assay in HEK293T cells. Agonist-induced D1R activation results in Gs/olfrecruitment followed by the binding of its Gα subunit to adenylate cyclase (AC), which enhances the conversion of ATP to cAMP. cAMP binds the bioluminescence resonance energy transfer 1 (BRET′)-based cAMP sensor CAMYEL^87, resulting in a conformational change in its Epac domain that increases the distance and decreases BRET^1 between the donor Renilla luciferase (Rluc) and the acceptor YFP. […]
In general terms: Cyclic AMP is a second messenger, typically raised through Gs and lowered through Gi signalling.

The target in a further series is T2, intracellular SNAP-tag (Homo sapiens, UniProt P16455, A127T/A154D/C150Q/C62A/E30R/G131K/G132T/G153L/K125A/K32I/L33F/M134L/N157G/Q115S/Q116H/R128A/R135S/S151G/S152D/S159E).
T2 construct: expressed in transfected cells
T2 sequence (P16455 1-182 E30R/K32I/L33F/C62A/Q115S/Q116H/K125A/A127T/R128A/G131K/G132T/M134L/R135S/C150Q/S151G/S152D/G153L/A154D/N157G/S159E limits assumed): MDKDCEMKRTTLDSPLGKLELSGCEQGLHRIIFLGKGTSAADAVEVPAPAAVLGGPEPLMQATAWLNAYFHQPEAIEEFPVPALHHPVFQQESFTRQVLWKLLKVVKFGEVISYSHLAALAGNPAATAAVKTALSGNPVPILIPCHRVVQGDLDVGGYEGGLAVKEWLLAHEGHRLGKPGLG
In words: Block of BG-TMRstar binding to intracellular SNAP-tag expressed in the cytosol. It counts as cell-based. Conditions: 1 µM for 1 hour, then 1.5 µM BG-TMRstar for 20 minutes.

A further series has as its target T3, SNAP-D1R (Homo sapiens, UniProt P21728).
T3 construct: expressed in transfected cells; host or cells: HEK293T
In words: SNAP-D1R photoactivation, GIRK assay in HEK293T cells. It counts as cell-based. Particulars: P-D1ago tethered to SNAP-tag fused to the N-terminus of D1R. From the text:
To test the ability of P-D1ago to photo-activate D1R, it was attached directly to a version of D1R that has SNAP fused to its extracellular N-terminus, which is adjacent to the ligand binding site of the receptor. SNAP-D1R was co-expressed in HEK293T cells with the G protein-coupled inwardly rectifying potassium (GIRK) channel as an effector. […] P-D1ago was attached to the M, which was co-expressed in HEK293T cells with the native D1R and the GIRK channel. […] To optimize D1R photoactivation, the geometric positioning of P-D1ago was adjusted using variants of M with “lift” peptides between the SNAP-tag and transmembrane segment. Photoactivation increased with an M variant containing a rigid, α-helical EAAAK (SEQ ID NO: 13) peptide (MEAAAK (SEQ ID NO: 16); FIG. 2B, C, and E) and decreased as the lift peptide was further extended (FIGS. 11D-11F), presumably because P-D1ago “rises” too far from the cell surface.
FIGS. 10A-10C. […] (A) Schematic representation of P-D1ago tethered to a SNAP-tag fused directly to the extracellular N-terminus of D1R. (B) Representative trace of SNAP-D1R photoactivation by P-D1ago according to the GIRK assay. […] (C) Summary of SNAP-D1R photoactivation by P-D1ago relative to a saturating concentration of DA (10 µM). n = 5 cells.

The next series addresses dStr-dMSN D1Rs (Mus musculus, UniProt Q61616). In words: Open field test, MP-D1ago in dStr-dMSNs of D1-Cre mice. Particulars: trans-P-D1ago 100 µM, 1 µL bilateral dStr-infusion, mice expressing the M.
The target of another series is T4, GIRK channels (Homo sapiens, UniProt P48549, F137S).
T4 sequence (P48549 1-501 F137S): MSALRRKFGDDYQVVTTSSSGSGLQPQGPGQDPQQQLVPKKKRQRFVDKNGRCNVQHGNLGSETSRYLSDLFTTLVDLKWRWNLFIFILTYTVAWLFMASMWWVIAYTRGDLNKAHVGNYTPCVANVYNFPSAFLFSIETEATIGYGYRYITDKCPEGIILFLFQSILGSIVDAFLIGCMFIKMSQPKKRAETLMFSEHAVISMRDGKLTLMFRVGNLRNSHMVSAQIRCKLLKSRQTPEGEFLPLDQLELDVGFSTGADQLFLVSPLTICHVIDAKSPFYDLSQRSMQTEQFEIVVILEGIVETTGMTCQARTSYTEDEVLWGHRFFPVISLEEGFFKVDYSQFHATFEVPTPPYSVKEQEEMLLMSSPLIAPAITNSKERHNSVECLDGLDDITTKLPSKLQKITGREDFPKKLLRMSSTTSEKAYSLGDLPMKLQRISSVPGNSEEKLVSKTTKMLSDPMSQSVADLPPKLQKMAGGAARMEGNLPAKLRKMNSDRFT
Conditions: 1 µM P-D1ago labeled cells without D1R; % of 3 mM BaCh, a GIRK channel blocker; n = 5 cells.

dStr-dMSN D1Rs, sequence (Q61616 whole entry, the tested form may be a part): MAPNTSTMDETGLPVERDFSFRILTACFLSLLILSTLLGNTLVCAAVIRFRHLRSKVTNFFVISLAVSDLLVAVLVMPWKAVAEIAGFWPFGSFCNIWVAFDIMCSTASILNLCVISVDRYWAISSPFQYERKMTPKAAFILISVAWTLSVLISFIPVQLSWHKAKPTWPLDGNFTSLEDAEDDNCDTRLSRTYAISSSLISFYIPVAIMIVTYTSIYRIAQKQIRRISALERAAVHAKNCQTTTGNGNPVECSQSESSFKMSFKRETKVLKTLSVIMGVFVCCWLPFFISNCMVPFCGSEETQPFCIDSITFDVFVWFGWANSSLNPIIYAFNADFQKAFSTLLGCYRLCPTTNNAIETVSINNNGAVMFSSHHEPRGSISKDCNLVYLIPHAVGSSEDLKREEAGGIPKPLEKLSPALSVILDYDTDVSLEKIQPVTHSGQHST
T1 sequence (P21728 whole entry): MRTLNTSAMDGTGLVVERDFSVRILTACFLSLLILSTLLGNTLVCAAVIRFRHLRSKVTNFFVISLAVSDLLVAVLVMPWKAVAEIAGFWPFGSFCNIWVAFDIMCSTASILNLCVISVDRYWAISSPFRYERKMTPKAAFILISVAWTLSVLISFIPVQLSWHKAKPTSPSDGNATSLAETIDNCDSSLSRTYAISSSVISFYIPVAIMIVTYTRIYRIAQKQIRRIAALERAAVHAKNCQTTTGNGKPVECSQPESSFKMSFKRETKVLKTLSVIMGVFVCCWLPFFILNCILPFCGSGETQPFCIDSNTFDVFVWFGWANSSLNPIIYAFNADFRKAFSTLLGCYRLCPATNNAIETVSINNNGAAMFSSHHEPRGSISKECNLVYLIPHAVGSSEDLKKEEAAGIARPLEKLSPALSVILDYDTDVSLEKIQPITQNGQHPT
T3 sequence (P21728 with tags, fused parts or gaps): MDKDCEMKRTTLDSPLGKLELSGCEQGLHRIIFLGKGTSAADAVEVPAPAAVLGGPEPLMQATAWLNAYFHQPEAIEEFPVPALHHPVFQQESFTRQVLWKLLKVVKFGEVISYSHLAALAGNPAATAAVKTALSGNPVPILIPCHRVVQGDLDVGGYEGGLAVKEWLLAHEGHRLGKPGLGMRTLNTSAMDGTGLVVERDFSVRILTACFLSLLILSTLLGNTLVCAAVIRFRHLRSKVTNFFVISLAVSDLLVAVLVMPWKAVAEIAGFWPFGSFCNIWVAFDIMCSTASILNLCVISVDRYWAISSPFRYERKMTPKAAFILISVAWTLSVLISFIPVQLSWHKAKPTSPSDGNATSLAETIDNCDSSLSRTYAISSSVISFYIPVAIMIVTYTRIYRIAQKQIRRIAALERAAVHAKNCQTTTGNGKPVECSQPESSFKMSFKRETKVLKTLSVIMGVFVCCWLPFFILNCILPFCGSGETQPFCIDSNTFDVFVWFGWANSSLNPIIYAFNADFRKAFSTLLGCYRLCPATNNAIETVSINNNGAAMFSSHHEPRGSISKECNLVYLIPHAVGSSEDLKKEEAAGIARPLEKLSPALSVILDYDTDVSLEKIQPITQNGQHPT
Source text for dStr-dMSN D1Rs: The mice were 20-30 grams and 8-20 weeks old. […] Mice were maintained on a 12:12 light cycle (lights on at 07:00).
The sub-second velocity traces recorded using Biobserve were smoothed in MATLAB using a first order Butterworth filter (normalized cutoff frequency ωu = 0.02). Using original code written in MATLAB, a velocity threshold was manually set to distinguish movements from tracking artifacts, as verified by visual inspection of each movie. Movement bouts were counted when the velocity surpassed this threshold and lasted for at least 0.3 seconds. Bouts were considered finished after the velocity remained below the manually defined threshold for 0.1 seconds. The percent time moving was calculated as the time that velocity was above the movement threshold divided by the time of the entire measurement. Movement initiation frequency was calculated as the number of times velocity surpassed the movement threshold per second. Movement bout duration was calculated by averaging the duration of all movement bouts that occurred during the entire measurement. Max velocity was calculated by averaging the maximum velocity of all movement bouts that occurred during the entire measurement.

With `CCCN(CCc1ccc(N=Nc2ccc(NC(=O)CNC(=O)CCOCCOCCOCCOCCOCCOCCOCCOCCOCCOCCOCCOCCn3cc(CCC(=O)NCc4ccc(COc5nc(N)nc6nc[nH]c56)cc4)nn3)cc2)cc1)C1CCc2c(O)cccc2C1` (stereo not shown) [P-D1ago, Benzylguanine-azobenzene-PPHT], the “agonist profile at D1R in untethered form” value at D1R is recorded as “low potency full agonist”. Besides, the “block of BG-TMRstar binding to intracellular SNAP-tag (membrane permeation)” value on intracellular SNAP-tag is on record as “does not effectively prevent the binding”. The SNAP-D1R photoactivation entry at SNAP-D1R was “photoactivates D1R in response to blue light and is deactivated with UV light”. Further, at dStr-dMSN D1Rs, the “persistence of increased motor activity” value was “remained high for many hours” and the “return of motor activity to baseline” value is given as “returned to baseline over a two-day period”. Further, the “time to increase of motor activity after start of infusion” value on dStr-dMSN D1Rs (dark) is at most 30 min. Further, the “effect of switching from UV light to blue light on basal current” value on GIRK channels is 1.3 ± 1.0%.
